≈ marks a conversion by molar mass, not a printed value.
Columns and labels:
Assay type in all cases: functional
Staphylococcus sp. [1] = test: (§1) Antibacterial activity against methicillin-susceptible coagulase-negative Staphylococcus sp. assessed as percent susceptible isolates by CLSI dilution method
Staphylococcus sp. [2] = test: Antibacterial activity against methicillin-resistant coagulase-negative Staphylococcus sp. by CLSI dilution method
Staphylococcus aureus [3] = test: Antibacterial activity against methicillin-resistant Staphylococcus aureus isolate assessed as percent susceptible isolates by CLSI dilution method
Staphylococcus aureus [4] = test: Antibacterial activity against methicillin-susceptible Staphylococcus aureus isolate by CLSI dilution method
Staphylococcus aureus [5] = test: Antibacterial activity against methicillin-resistant Staphylococcus aureus by CLSI dilution method
Staphylococcus sp. [6] = test: Antibacterial activity against methicillin-susceptible coagulase-negative Staphylococcus sp. by CLSI dilution method
Staphylococcus aureus [7] = test: Antibacterial activity against methicillin-susceptible Staphylococcus aureus isolate assessed as […] isolates by CLSI dilution method
Staphylococcus sp. [8] = test: as §1; remark: listed apart in the source
Staphylococcus sp. [9] = test: Antibacterial activity against methicillin-susceptible coagulase-negative Staphylococcus sp. assessed as percent resistant isolates by CLSI dilution method
Staphylococcus aureus [10] = test: (§2) Antibacterial activity against methicillin-resistant Staphylococcus aureus isolate assessed as percent resistant isolates by CLSI dilution method
Staphylococcus sp. [11] = test: Antibacterial activity against methicillin-resistant coagulase-negative Staphylococcus sp. assessed as percent resistant isolates by CLSI dilution method
Staphylococcus aureus [12] = test: as §2; remark: listed apart in the source

Row | SMILES | Activity (Staphylococcus sp. [1]) [%] | MIC50 (Staphylococcus sp. [2]) [mg/L] | MIC90 (Staphylococcus sp. [2]) [mg/L] | Activity (Staphylococcus aureus [3]) [%] | MIC50 (Staphylococcus aureus [4]) [mg/L] | MIC90 (Staphylococcus aureus [4]) [mg/L] | MIC50 (Staphylococcus aureus [5]) [mg/L] | MIC90 (Staphylococcus aureus [5]) [mg/L] | MIC50 (Staphylococcus sp. [6]) [mg/L] | MIC90 (Staphylococcus sp. [6]) [mg/L] | Activity (Staphylococcus aureus [7]) [%] | Activity (Staphylococcus sp. [8]) [%] | Activity (Staphylococcus sp. [9]) [%] | Activity (Staphylococcus aureus [10]) [%] | Activity (Staphylococcus sp. [11]) [%] | Activity (Staphylococcus aureus [12]) [%]
1 | CC(=O)NC[C@H]1CN(c2ccc(N3CCOCC3)c(F)c2)C(=O)O1 [LINEZOLID] | 100 | 1 (≈ 2.96 µM) | 2 (≈ 5.93 µM) | 100 | 4 (≈ 11.9 µM) | 4 (≈ 11.9 µM) | 2 (≈ 5.93 µM) | 2 (≈ 5.93 µM) | 1 (≈ 2.96 µM) | 2 (≈ 5.93 µM) | 100 | 100 | – | – | – | –
2 | Cc1onc(-c2ccccc2)c1C(=O)N[C@@H]1C(=O)N2[C@@H]1SC(C)(C)[C@@H]2C(=O)O [OXACILLIN] | 100 | 32 (≈ 79.7 µM) | > 128 | 0 | 0.5 (≈ 1.25 µM) | 0.5 (≈ 1.25 µM) | > 128 | > 128 | 0.12 (≈ 0.299 µM) | 0.25 (≈ 0.623 µM) | 100 | 0 | 0 | 100 | 100 | 0
3 | CN(C)[C@@H]1C(O)=C(C(N)=O)C(=O)[C@@]2(O)C(O)=C3C(=O)c4c(O)cccc4[C@@](C)(O)[C@H]3C[C@@H]12 [TETRACYCLINE] | 78 | 2 (≈ 4.5 µM) | 128 (≈ 288 µM) | 25 | 1 (≈ 2.25 µM) | 32 (≈ 72 µM) | 64 (≈ 144 µM) | 128 (≈ 288 µM) | 0.5 (≈ 1.13 µM) | 64 (≈ 144 µM) | 88 | 67 | 22 | 75 | 31 | 12
4 | CN[C@H](CC(C)C)C(=O)N[C@H]1C(=O)N[C@@H](CC(N)=O)C(=O)N[C@H]2C(=O)N[C@H]3C(=O)N[C@H](C(=O)N[C@H](C(=O)O)c4cc(O)cc(O)c4-c4cc3ccc4O)[C@H](O)c3ccc(c(Cl)c3)Oc3cc2cc(c3O[C@@H]2O[C@H](CO)[C@@H](O)[C@H](O)[C@H]2O[C@H]2C[C@](C)(N)[C@H](O)[C@H](C)O2)Oc2ccc(cc2Cl)[C@H]1O [VANCOMYCIN] | 100 | 1 (≈ 0.69 µM) | 2 (≈ 1.38 µM) | 100 | 1 (≈ 0.69 µM) | 1 (≈ 0.69 µM) | 1 (≈ 0.69 µM) | 1 (≈ 0.69 µM) | 1 (≈ 0.69 µM) | 2 (≈ 1.38 µM) | 100 | 99 | 0 | 0 | 0 | 0

— ChEMBL document CHEMBL1150783, “In vitro activities of CG400549, a novel FabI inhibitor, against recently isolated clinical staphylococcal strains in Korea” (2007)
